These results are taken from patent US6643591B1, “Use of computational and experimental data to model organic compound reactivity in cytochrome P450 mediated reactions and to optimize the design of pharmaceuticals” (University of Pittsburgh, priority 1998, dated 2003).

Broadly, the Vmax is the rate approached at saturating substrate.

Data set [1] deals with CYP. Briefly: Experimental product ratios for aromatic oxidation. The text has this: These equations may be solved with the data in Table 4, which provides experimental data for aromatic oxidation reactions with a number of substrates.
Experimental metabolite ratios may also be used to parameterize the aromatic oxidation reaction in a theoretical model for CYP reactions. As with hydrogen atom abstraction discussed in the previous Examples, experimental ratios of aromatic oxidation to an alternate position may be determined using various CYP enzymes. These substrates were chosen based on their small size, the presence of an alternate position for metabolism, and their hydrophobicity.
In order for the substrates to be useful, the average of the rotation rates in the active sites should be rapid. […] Several human expressed CYP enzymes were used in these studies, including CYP1A1, 1A2, 2A6, 2B6, 2C8, 2C9, 2D6, 2E1, 3A4, and 3A5. The use of multiple enzymes insures that a reasonable average of any orientation preferences within the active site (see FIG. 1).

Data set [2] deals with CYP. The note with it: cited from earlier work.
Another data set has as its target CYP2E1 (Homo sapiens, UniProt P05181).
The next data set concerns the target T1, P450cam (Pseudomonas putida, UniProt P00183).
T1 construct: made in house
Briefly: Intramolecular isotope effects with purified P450cam. The class given is in vitro ADME, bacterial. The note with it: benzylic hydroxylation, -CH2D (d1) substrate. The method, then: For the intramolecular isotope effect experiments herein, a substrate is chosen that contains at least two symmetrical sites, with at least one site, but not all, isotopically labeled. A single concentration of substrate is incubated with enzyme, and the ratio of labeled to unlabeled compound in the isotopic mixture of products (or the corresponding rates of formation of products) are used to calculate a KIE.
Construction of expression plasmids for P450cam, Pd, and PdR as well as protein expression and purification have been described previously (Shimoji et al. (1998) Biochemistry 37, 8848-52).
Enzyme incubations with monodeuterated toluenes and p-xylene-α-^2H1-α′-^2H1 were performed in triplicate at a single substrate concentration of 0.25 mM. […] The kinetic parameters for metabolism of the substituted toluenes were determined by GC-MS analysis of the M-(dimethylsilyl) derivative of the product benzyl alcohols (see below).

The target in a further data set is T2, CYP2B1 (Rattus norvegicus, UniProt P00176).
T2 sequence (P00176 1-491): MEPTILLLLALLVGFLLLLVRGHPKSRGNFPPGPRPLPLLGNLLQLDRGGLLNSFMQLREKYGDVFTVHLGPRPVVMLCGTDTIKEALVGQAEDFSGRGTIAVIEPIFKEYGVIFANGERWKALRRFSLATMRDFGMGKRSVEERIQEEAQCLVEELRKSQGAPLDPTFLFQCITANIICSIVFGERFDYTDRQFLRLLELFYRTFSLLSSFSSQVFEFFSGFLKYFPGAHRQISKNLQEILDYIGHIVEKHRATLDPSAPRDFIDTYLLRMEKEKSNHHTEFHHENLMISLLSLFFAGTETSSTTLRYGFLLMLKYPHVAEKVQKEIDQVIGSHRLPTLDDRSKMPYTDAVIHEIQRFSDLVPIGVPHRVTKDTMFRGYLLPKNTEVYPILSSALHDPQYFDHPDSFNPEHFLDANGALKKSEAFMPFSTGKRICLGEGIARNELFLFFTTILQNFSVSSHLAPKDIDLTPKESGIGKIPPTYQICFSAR

The next data set concerns the target T3, CYP1A2 (Homo sapiens, UniProt P05177).
T3 sequence (P05177 1-516): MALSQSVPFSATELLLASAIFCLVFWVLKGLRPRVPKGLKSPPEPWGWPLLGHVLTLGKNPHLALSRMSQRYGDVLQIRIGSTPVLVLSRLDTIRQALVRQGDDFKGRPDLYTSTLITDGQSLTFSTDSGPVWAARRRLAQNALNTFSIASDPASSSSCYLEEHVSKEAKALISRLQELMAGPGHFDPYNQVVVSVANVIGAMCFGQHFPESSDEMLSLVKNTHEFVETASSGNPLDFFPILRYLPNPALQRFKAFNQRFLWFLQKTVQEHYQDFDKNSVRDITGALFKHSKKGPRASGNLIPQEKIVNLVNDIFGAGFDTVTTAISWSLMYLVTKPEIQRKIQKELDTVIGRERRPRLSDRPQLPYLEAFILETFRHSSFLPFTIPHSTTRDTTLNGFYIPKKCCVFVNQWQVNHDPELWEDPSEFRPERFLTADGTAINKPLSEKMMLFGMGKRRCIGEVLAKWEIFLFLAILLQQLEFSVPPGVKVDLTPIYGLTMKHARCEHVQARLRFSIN

In the next data set the target is CYP2C9 (Homo sapiens, UniProt P11712).
Sequence of CYP2C9 (P11712 whole entry): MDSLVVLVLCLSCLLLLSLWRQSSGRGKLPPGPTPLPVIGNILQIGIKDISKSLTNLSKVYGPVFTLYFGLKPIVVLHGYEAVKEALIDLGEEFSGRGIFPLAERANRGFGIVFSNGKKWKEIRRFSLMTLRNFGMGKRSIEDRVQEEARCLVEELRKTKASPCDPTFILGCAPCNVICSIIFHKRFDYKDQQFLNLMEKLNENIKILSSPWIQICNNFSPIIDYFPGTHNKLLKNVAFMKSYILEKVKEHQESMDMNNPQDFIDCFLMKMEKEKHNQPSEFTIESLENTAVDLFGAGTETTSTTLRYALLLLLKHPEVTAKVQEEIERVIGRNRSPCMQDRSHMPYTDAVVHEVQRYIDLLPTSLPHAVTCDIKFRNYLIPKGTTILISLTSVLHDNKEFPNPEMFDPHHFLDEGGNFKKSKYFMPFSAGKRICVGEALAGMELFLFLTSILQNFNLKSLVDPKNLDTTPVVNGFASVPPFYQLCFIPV
The test system of data set [3] is CYP. The experiment in a line: Activation energy differences from experimental regioselectivity of substrates in rapid equilibrium. The data set is classed as in vitro ADME. Also on record: unit not given here. The note with it: difference in activation energy calculated by the experimental regioselectivity. From the text:
Five substrates shown to undergo rapid equilibrium between positions of metabolism have been used to prepare data for regression and then correlation with Eq. 1. The differences in activation energy calculated by the experimental regioselectivity of the substrates, along with the differences in AM1 activation enthalpies, are given in Table 1. Regression of the experimental data gives a slope correction for AM1 activation energies of 0.75±0.20.

A further data set has as its target T4, CYP2B6 (Homo sapiens, UniProt P20813).
T4 sequence (P20813 1-491): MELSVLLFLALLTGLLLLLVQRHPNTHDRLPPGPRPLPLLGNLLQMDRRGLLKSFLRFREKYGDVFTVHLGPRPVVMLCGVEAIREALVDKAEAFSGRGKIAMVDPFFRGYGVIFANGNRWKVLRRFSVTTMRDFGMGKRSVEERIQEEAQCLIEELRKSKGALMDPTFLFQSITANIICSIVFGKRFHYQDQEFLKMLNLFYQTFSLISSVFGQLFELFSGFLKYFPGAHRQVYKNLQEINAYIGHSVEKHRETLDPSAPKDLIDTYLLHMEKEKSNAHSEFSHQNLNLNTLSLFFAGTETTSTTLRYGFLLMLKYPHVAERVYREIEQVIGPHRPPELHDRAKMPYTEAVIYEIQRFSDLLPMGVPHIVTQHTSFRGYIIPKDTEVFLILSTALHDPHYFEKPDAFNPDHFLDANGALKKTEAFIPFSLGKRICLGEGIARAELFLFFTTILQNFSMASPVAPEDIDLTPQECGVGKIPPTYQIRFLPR

For a further data set, the target named is CYP4B1 (Oryctolagus cuniculus, UniProt P15128).
Sequence of CYP4B1 (P15128 whole entry): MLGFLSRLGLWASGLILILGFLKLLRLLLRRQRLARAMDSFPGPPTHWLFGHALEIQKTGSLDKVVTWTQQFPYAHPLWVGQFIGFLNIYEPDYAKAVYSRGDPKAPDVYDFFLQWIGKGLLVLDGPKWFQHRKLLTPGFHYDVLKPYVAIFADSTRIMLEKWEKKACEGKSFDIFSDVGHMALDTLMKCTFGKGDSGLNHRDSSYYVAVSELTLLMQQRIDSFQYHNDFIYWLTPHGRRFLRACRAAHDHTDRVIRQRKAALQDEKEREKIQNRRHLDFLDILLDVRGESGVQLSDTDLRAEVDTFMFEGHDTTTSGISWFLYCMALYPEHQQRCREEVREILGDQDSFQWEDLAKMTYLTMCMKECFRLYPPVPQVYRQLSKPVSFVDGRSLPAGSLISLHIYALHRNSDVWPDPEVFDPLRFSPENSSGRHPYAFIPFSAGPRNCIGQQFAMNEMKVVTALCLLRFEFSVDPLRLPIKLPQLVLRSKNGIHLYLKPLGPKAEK

Where “and” joins values, the source holds several entries; their conditions need not be identical. Identical values can stand only once. Like-named read-outs stand apart in the source and are kept apart here. Marks after values point to notes of the source that are not given here.

Sequence of CYP2E1 (P05181 whole entry): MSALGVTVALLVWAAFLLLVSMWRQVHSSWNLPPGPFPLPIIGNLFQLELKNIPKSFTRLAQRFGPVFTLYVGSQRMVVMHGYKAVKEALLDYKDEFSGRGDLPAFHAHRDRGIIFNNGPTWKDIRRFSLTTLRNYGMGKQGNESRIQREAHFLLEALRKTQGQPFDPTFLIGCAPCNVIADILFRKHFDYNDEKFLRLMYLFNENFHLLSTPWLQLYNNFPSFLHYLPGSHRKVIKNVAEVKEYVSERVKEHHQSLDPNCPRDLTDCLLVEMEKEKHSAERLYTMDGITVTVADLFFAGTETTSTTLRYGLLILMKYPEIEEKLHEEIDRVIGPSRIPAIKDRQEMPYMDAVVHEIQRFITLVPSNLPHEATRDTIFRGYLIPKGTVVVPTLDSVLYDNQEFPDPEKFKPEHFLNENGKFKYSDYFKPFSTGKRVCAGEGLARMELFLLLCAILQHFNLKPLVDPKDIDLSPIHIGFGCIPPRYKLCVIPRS
T1 sequence (P00183 2-415): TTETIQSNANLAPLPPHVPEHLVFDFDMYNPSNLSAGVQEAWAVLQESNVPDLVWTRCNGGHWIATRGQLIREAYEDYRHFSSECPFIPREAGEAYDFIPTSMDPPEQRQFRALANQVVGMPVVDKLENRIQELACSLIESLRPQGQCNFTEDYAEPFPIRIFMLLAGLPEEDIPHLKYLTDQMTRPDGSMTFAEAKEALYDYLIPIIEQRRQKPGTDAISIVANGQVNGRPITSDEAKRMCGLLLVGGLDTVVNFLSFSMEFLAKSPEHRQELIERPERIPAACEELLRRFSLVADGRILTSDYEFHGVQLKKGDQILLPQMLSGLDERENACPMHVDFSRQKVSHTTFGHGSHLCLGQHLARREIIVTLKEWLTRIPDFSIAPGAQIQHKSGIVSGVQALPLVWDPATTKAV

Regarding `COc1ccccc1` [Anisole], in the data set on CYP [1] (human), the “Experimental Ratio” value turned out to be 10.6. For the same compound, the “Relative difference in energy for p-hydroxylation and demethylation” value in the data set with CYP [2] (calculated from the product ratios of Lindsay Smith et al.) is recorded as 0.6 kcal/mol. Besides, the “Intermolecular isotope effect (Lindsay Smith et al.)” value with CYP [2] (deuteration of the methyl group) was 7. Also, in the data set on CYP [2] (four microsomal systems (Lindsay Smith)), the “Ratio of p-hydroxyanisole to phenol, average” value is 2.9.
For the compound `Cc1ccc(Br)cc1` [Br, p-bromotoluene], the “Intermolecular Noncompetitive ^DV” value at CYP2E1 (pH 7.4) amounted to 1.07 ± 0.04. Further, the “Intramolecular KIE (kH/kD)” value at P450cam is 8.3; at CYP2B1, 8.02; on CYP1A2 (pH 7.4) it was 6.83 (8); at CYP2C9 (human, pH 7.4), 6.9.
With `[2H]C([2H])([2H])c1ccc(Br)cc1` [Br-d3], on CYP2E1, the V/K was determined as 0.027 min⁻¹ and the Vmax is 54.8 nM/min.
For `[2H]Cc1ccc(C[2H])cc1` [CH2D, p-Xylene-α-^2H1-α′-^2H1], the “Intramolecular KIE (kH/kD)” value at CYP2E1 is recorded as 5.45 (5); on P450cam it was 6.0; on CYP2B1, 6.23; on CYP1A2, 5.59 (1); on CYP2C9, 5.9.
As to `Cc1ccc(C)cc1` [CH3, p-xylene], the “Benzylic hydroxylation, share of total oxidation / metabolism” value in the data set on CYP [2] (depending on the source of CYP) was about 95%. Besides, on CYP2E1 (pH 7.4), the “Intermolecular Competitive ^D(V/K)” value is 1.18 ± 0.03, the “Intermolecular Noncompetitive ^D(V/K)” value is listed as 1.19 ± 0.01, the “Intermolecular Noncompetitive ^DV” value was determined as 1.05 ± 0.03 and the “Intramolecular KIE (kH/kD)” value is 5.45 ± 0.05.
On to `Cc1ccc(C#N)cc1` [CN, p-tolunitrile], for which the “Intramolecular KIE (kH/kD)” value on CYP2E1 (pH 7.4) was 10.1 (1); on P450cam, 11.6; on CYP2B1 it was 11.9; at CYP1A2 (pH 7.4) it was 10.1 (2); on CYP2C9 (human, pH 7.4) it was 11.1.
Consider `Cc1ccc(Cl)cc1` [Cl, p-chlorotoluene], for which the “Intermolecular Noncompetitive ^DV” value on CYP2E1 (pH 7.4) came out at 1.61 ± 0.01. Moreover, the “Intramolecular KIE (kH/kD)” value on P450cam was 6.5; on CYP2B1, 8.1 and 8.06 ± 0.12; at CYP2C9 (human, pH 7.4) it was 6.2. Besides, the “Intermolecular Competitive ^D(V/K)” value at CYP2B1 was determined as 3.21 ± 0.02.
On to `[2H]C([2H])([2H])c1ccc(Cl)cc1` [Cl-d3], for which, on CYP2E1, the V/K is 0.020 min⁻¹ and the Vmax stood at 31.4 nM/min.
Regarding `CCc1ccccc1` [Ethylbenzene], the “Experimental Ratio” value in the data set with CYP [1] (Arom/benz) is reported as 0.086.
Take `Cc1ccccc1` [H, toluene]: the “Isotope effect measured by White and McCarthy” value with CYP [2] is reported as 2. In addition, the “Intramolecular KIE (kH/kD)” value at CYP2E1 (pH 7.4) is reported as 6.1 (1); at CYP2B1 it was 7; on CYP1A2 (pH 7.4) it was 6.1 (4).
Consider `CCCCCCCC` [Octane], for which the “Average P value (primary KIE)” value in the data set with CYP [2] (Jones et al. 1987) is recorded as 7.6. In addition, the “ΔΔG (experimental)” value in the data set with CYP [3] is given as −3.13.
Turning to `CCCC(CCC)C(=O)O` [Valproate], in the data set with CYP [3], the “ΔΔG (experimental)” value is −2.48.
On to `[2H]C([2H])([2H])c1ccccc1OC` [o-Methylanisole-α-^2H3], for which the “nmol 4M3MPh” value on CYP2B6 is listed as 3.3 nmol; at CYP2E1, 13* nmol; at CYP2B1 it was 13* nmol; on CYP4B1, 1.9* nmol; on CYP1A2 it was 11.5* nmol. For the same compound, the “nmol TP” value at CYP2B6 is reported as 22 nmol; on CYP2E1, 19* nmol; at CYP2B1 it was 17* nmol; at CYP4B1 it was 55 nmol; at CYP1A2, 17.2 nmol; on CYP2C9, 3.9* nmol. Further, the “nmol o-CR” value on CYP2B6 is listed as 17* nmol; on CYP2E1 it was 4.7* nmol; at CYP2B1 it was 2.8* nmol; on CYP4B1, 50* nmol; at CYP1A2, 4.2* nmol; at CYP2C9, 1.4* nmol. Further, the “nmol o-MBA” value is on record as 0.95* nmol on CYP2B6; 0.99* nmol at CYP2E1; 0.36* nmol at CYP2B1; 3.5* nmol at CYP4B1; 1.52* nmol on CYP1A2; 0.7* nmol at CYP2C9.
For `[2H]C([2H])([2H])Oc1ccc(C)cc1` [p-Methylanisole-α-^2H3], on CYP2B6, the “nmol p-CR” value is on record as 9* nmol, the “nmol p-MBA” value was 2.39* nmol and the “nmol total TP” value was determined as 11 nmol. At CYP2E1, the Vmax worked out at 18.0 nM/min, the “nmol p-CR” value was 18.2* nmol, the “nmol p-MBA” value is on record as 10.6* nmol and the “nmol total TP” value is recorded as 29 nmol. At CYP2B1, the “nmol p-CR” value is reported as 3.3* nmol, the “nmol p-MBA” value is reported as 0.9* nmol and the “nmol total TP” value is given as 4.2* nmol. For the same compound, on CYP4B1, the “nmol p-CR” value was 52* nmol, the “nmol p-MBA” value is 48* nmol and the “nmol total TP” value is recorded as 100* nmol.
As for `[2H]C([2H])([2H])c1ccc(CCl)cc1` [α-Chloromethyl-p-xylene-α′-^2H3], the “nmol TP” value on CYP2B6 is on record as 14* nmol; on CYP2E1 it was 31 nmol; on CYP2B1, 21.3 nmol; on CYP4B1, 17.0* nmol; at CYP1A2 it was 47 nmol; on CYP2C9, 1.8* nmol. Besides, the “nmol p-Alc” value on CYP2B6 is listed as 1.82* nmol; on CYP2E1, 0.78* nmol; on CYP2B1, 1.3* nmol; on CYP4B1 it was 15.2* nmol; at CYP1A2, 1.3* nmol; on CYP2C9 it was 0.10* nmol. The “nmol p-Ald + TolA” value was 12* nmol on CYP2B6; 30 nmol on CYP2E1; 20.0* nmol at CYP2B1; 1.87* nmol on CYP4B1; 46 nmol on CYP1A2; 1.7* nmol at CYP2C9.
